These results are taken from patent US8367349B2, “Methods for identifying modulators of LRRK2” (Medical Research Council, priority 2010, dated 2013).

Assay [1] deals with LRRK2[A2016T] or LRRK2[A2016T+G2019S]. Briefly: Cytoplasmic localisation of drug resistant GFP-LRRK2[A2016T] or [A2016T+G2019S] in T-REx cells. In kind it is cell-based, human. Here is the method:
(§1) FIG. 14. Disruption of 14-3-3 binding induces accumulation of LRRK2 within cytoplasmic aggregates. A.) Stable-inducible T-REx cells lines harboring the indicated forms of LRRK2 were induced for 24 hours with 0.1 μg/ml doxycycline to induce expression of GFP-LRRK2. The indicated cell lines were treated in the absence or presence of the indicated dose of H-1152 for 90 min prior to fixation. Representative fluorescent micrographs of GFP-LRRK2 localisation are shown. Cytoplasmic aggregates of GFP-LRRK2 are indicated with white arrowheads. B.) Fluorescent micrographs representative of cultures of the indicated forms GFP-LRRK2 are shown. Cytoplasmic aggregates of GFP-LRRK2 are indicated with white arrowheads. Localisation analyses were performed in duplicate, and similar results observed in two independent experiments.
(§2) Fluorescence Microscopy. HEK-293 Flp-in T-REx were purchased from Invitrogen and stable cells harbouring GFP tagged wild type and mutant forms of LRRK2 were generated using standard protocols. Cells were plated in 4-well glass bottom, CC2 coated chamber slides (Nunc). One day after plating, cells were induced with 0.1 μg/ml doxycycline and 24 hr later, cells were fixed in 4% paraformaldehyde buffered in phosphate buffered saline (purchased from USB, # 19943). […]

The next assay concerns the target LRRK2[Ala2016Thr] (Homo sapiens, UniProt Q5S007, A2016T). Particulars: relative to normally sensitive LRRK2; cited from earlier work.
Assay [2] concerns the target T1, endogenous LRRK2 (Mus musculus, UniProt Q5S006).
T1 construct: endogenous in cells; host or cells: Swiss 3T3 cells
The assay can be described thus: Ser910/Ser935 phosphorylation and 14-3-3 binding of endogenous LRRK2 in Swiss 3T3 cells. Particulars: 90 minutes. In kind it is cell-based. On the procedure:
(§3) Cell transfections were performed by the polyethylenimine method. Where inhibitors are utilized, they were dissolved in DMSO and used at the indicated concentrations with an equivalent volume of DMSO used as a control. The final concentration of DMSO in the culture medium was never more than 0.1% (v/v). Inhibitors were added to the culture medium for the indicated times before lysis. Per 15 cm dish, HEK 293 cells were lysed with 1.0 ml and 3T3 cells were lysed with 0.6 ml of lysis buffer supplemented with the indicated detergent and clarified by centrifugation at 16,000×g at 4° C. for 10 minutes. After induction and inhibitor treatment, T-REx-GFP expressing cells were lysed at room temperature with SDS lysis buffer after washing with PBS. SDS lysates were boiled and sonicated to reduce viscosity. When not used immediately, all lysate supernatants were snap frozen in liquid nitrogen and stored at −80° C. until use. Protein concentrations were determined using the Bradford method with BSA as the standard.
Immunological procedures. Cell lysates (10-30 μg) were resolved by electrophoresis on SDS polyacrylamide gels or Novex 4-12% gradient gels, and electroblotted to nitrocellulose membranes. Membranes were blocked with 5% skimmed milk (w/v) in 50 mM Tris/HCl, pH 7.5, 0.15 M NaCl and 0.1% (v/v) Tween (TBST Buffer). […]

Another assay addresses T2, LRRK2[A2016T+G2019S] (Homo sapiens, UniProt Q5S007, A2016T/G2019S).
T2 construct: expressed in transfected cells; host or cells: HEK-293 cells, transient transfection
The assay can be described thus: Ser910/Ser935 phosphorylation and 14-3-3 binding of drug resistant LRRK2[A2016T+G2019S] in HEK-293 cells. The class given is cell-based. Particulars: HEK-293 over-expressing LRRK2[A2016T+G2019S], 90 minutes. Here is the method:
(§4) FIG. 5. […] Cells were lysed in lysis buffer supplemented with 0.5% NP40 and […] and subjected to anti-FLAG immunoprecipitation. Immunoprecipitates were resolved on 4-12% Novex SDS-polyacrylamide gels and subjected to immunoblot with FLAG (total LRRK2), anti-pS910, anti-pS935 as well as a 14-3-3 overlay assay.
as §3
(§5) Immunological procedures. […]

The target of assay [3] is T1, endogenous LRRK2. The assay can be described thus: Kinase activity of endogenous LRRK2 immunoprecipitated from inhibitor-treated Swiss 3T3 cells after wash-out. In kind it is biochemical. Particulars: 30 μM H1152 or 10 μM sunitinib for 2 h, inhibitor washed off, 20 μM Nictide.
Description: Immunoprecipitates were washed with lysis buffer containing 0.5 M NaCl to remove inhibitor and were then incubated in kinase buffer containing 20 μM Nictide with the presence or absence of magnesium-ATP for 30 min. Following incubation, immunoprecipitates were centrifuged at 8000 rpm for 0.5 min and the supernatant spotted on to P81 paper for measurement of LRRK2 kinase activity. Sample buffer was added to the pelleted beads and LRRK2 S910 and S935 phosphorylation was quantified following immunoblot analysis. A membrane was also subjected to autoradiography to assess LRRK2 autophosphorylation.
LRRK2 Immunoprecipitation Kinase assays. Peptide Kinase Assays were set up in a total volume of 50 μl with immunoprecipitated LRRK2 as a source of kinase, in 50 mM Tris pH 7.5, 0.1 mM EGTA, 10 mM MgCl2 and 0.1 mM [γ-^32P]ATP (˜500-1000 cpm/pmol) in the presence of 30 μM Nictide peptide substrate. Reactions were terminated by applying 30 μl of the reaction mixture on to P81 phosphocellulose paper and immersion in 50 mM phosphoric acid. After extensive washing, reaction products were quantitated by Cerenkov counting. One half of the remaining reaction was subjected to immunoblot analysis using the Odyssey LICOR system and specific activity is represented as cpm/LICOR independent density values.
The target in another assay is T3, LRRK2[G2019S] (Homo sapiens, UniProt Q5S007, G2019S).
T3 construct: expressed in transfected cells; host or cells: HEK-293 cells, transient transfection
T3 sequence (Q5S007 whole entry G2019S): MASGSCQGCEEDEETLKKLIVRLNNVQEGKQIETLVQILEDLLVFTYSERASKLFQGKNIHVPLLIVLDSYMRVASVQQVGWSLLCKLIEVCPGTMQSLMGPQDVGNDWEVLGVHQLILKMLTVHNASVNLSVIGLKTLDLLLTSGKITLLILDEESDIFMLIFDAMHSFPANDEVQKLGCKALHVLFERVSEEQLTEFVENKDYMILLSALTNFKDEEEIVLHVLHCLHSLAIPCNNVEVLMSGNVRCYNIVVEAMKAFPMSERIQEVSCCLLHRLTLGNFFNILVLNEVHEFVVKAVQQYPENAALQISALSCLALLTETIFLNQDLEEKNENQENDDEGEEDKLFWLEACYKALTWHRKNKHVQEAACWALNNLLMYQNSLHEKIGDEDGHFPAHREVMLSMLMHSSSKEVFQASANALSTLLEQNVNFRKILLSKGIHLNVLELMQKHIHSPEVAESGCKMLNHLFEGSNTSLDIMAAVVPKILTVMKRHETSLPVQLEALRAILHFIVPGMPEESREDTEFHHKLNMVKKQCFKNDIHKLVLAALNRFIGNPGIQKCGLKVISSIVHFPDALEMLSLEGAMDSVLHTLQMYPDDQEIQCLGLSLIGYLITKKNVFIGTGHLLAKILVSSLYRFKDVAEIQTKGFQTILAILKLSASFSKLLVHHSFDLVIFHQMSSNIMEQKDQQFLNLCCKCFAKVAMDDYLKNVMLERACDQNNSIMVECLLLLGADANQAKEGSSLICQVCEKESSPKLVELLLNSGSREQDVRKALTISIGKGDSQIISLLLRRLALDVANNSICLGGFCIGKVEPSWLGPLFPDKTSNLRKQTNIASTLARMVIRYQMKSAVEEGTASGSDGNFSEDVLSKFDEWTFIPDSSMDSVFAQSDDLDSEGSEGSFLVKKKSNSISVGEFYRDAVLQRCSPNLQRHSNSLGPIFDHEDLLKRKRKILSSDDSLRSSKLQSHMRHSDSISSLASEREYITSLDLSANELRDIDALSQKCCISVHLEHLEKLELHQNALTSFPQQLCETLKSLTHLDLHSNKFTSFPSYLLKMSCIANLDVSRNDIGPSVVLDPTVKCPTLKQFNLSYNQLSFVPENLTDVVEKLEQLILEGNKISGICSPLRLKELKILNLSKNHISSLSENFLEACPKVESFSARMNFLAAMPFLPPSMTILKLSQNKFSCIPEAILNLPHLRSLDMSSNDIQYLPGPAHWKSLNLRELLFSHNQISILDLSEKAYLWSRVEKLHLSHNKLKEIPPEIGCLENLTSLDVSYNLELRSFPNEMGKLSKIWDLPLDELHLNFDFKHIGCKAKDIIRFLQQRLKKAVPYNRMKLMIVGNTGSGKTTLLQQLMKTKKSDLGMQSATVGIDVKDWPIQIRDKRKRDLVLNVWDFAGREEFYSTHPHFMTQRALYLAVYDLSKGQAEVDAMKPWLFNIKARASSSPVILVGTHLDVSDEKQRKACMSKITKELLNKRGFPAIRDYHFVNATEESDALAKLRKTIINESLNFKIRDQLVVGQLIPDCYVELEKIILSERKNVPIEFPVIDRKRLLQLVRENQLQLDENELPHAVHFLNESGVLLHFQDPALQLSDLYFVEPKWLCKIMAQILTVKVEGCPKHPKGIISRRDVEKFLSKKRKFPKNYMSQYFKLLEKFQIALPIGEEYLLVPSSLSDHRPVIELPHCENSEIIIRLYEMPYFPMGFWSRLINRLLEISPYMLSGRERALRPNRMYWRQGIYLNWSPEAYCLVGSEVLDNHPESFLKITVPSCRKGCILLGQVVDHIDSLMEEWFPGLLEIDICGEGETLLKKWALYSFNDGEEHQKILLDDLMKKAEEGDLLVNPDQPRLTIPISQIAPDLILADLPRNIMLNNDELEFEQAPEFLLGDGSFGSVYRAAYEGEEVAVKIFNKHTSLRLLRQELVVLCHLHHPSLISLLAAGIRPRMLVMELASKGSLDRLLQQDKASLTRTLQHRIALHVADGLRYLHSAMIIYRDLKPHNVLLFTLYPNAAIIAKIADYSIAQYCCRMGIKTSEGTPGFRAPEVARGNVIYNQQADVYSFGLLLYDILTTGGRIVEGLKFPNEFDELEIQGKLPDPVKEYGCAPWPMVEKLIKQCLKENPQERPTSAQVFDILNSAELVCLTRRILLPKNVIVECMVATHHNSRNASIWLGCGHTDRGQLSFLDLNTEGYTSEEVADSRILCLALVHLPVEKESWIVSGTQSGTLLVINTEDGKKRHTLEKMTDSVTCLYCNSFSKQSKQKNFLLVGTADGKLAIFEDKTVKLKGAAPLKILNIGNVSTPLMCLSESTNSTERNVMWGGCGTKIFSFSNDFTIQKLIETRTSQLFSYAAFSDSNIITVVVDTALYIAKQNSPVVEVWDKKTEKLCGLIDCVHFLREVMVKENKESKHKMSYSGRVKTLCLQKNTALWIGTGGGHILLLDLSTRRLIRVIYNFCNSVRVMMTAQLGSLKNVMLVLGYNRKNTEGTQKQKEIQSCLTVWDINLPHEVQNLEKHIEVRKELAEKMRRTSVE
Briefly: Ser910/Ser935 phosphorylation and 14-3-3 binding of Flag-LRRK2[G2019S] in HEK-293 cells. In kind it is cell-based. On the procedure: as §4, §3, §5

The subject of assay [4] is GFP-LRRK2 or GFP-LRRK2[G2019S]. Briefly: Cytoplasmic localisation of GFP-LRRK2 or GFP-LRRK2[G2019S] in T-REx cells (fluorescence microscopy). Particulars: drug sensitive GFP-LRRK2 or GFP-LRRK2[G2019S], 90 min before fixation. In kind it is cell-based, human. On the procedure:
as §1, §2

In a further assay the target is LRRK2 (Homo sapiens, UniProt Q5S007). Particulars: wild type LRRK2, in vitro; read-out: IC50 for inhibition of LRRK2; cited from earlier work.
Sequence of LRRK2 (Q5S007 whole entry): as the sequence (Q5S007 whole entry G2019S) above, with S2019G counted along it
A further assay deals with T4, wild type FLAG-LRRK2 (Homo sapiens, UniProt Q5S007).
T4 construct: overexpressed full length human FLAG-LRRK2 expressed in HEK-293 cells; expressed in transfected cells; host or cells: HEK-293 cells, transient transfection
T4 sequence (Q5S007 whole entry): as the sequence (Q5S007 whole entry G2019S) above, with S2019G counted along it
The assay can be described thus: Ser910/Ser935 dephosphorylation of wild type FLAG-LRRK2 in 293 cells. The class given is cell-based. On the procedure: as §4, §3, §5

In a further assay the target is T5, GFP-LRRK2 (Homo sapiens, UniProt Q5S007).
T5 construct: immunoprecipitates of stably expressed full length GFP-LRRK2; expressed in transfected cells
T5 sequence (Q5S007 whole entry): as the sequence (Q5S007 whole entry G2019S) above, with S2019G counted along it
Briefly: Kinase inhibitor panel: Ser910/Ser935 phosphorylation in HEK293 cells stably expressing GFP-LRRK2. In kind it is cell-based. Particulars: HEK293 GFP-LRRK2, 90 minutes, inhibitors at the higher limits of concentrations routinely employed. Here is the method:
as §3, with “FIG. 16. HEK-293 stably expressing GFP-LRRK2 were treated with DMSO, or the following inhibitors dissolved in DMSO, at the indicated concentration for 90 minutes. […] Total LRRK2 was assessed by GFP immunoblot. The immunoblots shown are representative of 2 independent experiments. Cell” for “Cell”, “SDS lysates were boiled and sonicated to reduce viscosity. When not used immediately, all lysate supernatants were snap frozen in liquid nitrogen and stored at −80° C. until use.” left out, “standard. […] Immune complexes were washed twice with lysis buffer supplemented with 0.3 M NaCl and twice with Buffer A. Precipitates were either used as a source of kinase or immediately analyzed by immunoblot. […] DIG 14-3-3 was detected with HRP labelled anti-DIG Fab fragments (Roche).” for “standard.”

T1 sequence (Q5S006 whole entry): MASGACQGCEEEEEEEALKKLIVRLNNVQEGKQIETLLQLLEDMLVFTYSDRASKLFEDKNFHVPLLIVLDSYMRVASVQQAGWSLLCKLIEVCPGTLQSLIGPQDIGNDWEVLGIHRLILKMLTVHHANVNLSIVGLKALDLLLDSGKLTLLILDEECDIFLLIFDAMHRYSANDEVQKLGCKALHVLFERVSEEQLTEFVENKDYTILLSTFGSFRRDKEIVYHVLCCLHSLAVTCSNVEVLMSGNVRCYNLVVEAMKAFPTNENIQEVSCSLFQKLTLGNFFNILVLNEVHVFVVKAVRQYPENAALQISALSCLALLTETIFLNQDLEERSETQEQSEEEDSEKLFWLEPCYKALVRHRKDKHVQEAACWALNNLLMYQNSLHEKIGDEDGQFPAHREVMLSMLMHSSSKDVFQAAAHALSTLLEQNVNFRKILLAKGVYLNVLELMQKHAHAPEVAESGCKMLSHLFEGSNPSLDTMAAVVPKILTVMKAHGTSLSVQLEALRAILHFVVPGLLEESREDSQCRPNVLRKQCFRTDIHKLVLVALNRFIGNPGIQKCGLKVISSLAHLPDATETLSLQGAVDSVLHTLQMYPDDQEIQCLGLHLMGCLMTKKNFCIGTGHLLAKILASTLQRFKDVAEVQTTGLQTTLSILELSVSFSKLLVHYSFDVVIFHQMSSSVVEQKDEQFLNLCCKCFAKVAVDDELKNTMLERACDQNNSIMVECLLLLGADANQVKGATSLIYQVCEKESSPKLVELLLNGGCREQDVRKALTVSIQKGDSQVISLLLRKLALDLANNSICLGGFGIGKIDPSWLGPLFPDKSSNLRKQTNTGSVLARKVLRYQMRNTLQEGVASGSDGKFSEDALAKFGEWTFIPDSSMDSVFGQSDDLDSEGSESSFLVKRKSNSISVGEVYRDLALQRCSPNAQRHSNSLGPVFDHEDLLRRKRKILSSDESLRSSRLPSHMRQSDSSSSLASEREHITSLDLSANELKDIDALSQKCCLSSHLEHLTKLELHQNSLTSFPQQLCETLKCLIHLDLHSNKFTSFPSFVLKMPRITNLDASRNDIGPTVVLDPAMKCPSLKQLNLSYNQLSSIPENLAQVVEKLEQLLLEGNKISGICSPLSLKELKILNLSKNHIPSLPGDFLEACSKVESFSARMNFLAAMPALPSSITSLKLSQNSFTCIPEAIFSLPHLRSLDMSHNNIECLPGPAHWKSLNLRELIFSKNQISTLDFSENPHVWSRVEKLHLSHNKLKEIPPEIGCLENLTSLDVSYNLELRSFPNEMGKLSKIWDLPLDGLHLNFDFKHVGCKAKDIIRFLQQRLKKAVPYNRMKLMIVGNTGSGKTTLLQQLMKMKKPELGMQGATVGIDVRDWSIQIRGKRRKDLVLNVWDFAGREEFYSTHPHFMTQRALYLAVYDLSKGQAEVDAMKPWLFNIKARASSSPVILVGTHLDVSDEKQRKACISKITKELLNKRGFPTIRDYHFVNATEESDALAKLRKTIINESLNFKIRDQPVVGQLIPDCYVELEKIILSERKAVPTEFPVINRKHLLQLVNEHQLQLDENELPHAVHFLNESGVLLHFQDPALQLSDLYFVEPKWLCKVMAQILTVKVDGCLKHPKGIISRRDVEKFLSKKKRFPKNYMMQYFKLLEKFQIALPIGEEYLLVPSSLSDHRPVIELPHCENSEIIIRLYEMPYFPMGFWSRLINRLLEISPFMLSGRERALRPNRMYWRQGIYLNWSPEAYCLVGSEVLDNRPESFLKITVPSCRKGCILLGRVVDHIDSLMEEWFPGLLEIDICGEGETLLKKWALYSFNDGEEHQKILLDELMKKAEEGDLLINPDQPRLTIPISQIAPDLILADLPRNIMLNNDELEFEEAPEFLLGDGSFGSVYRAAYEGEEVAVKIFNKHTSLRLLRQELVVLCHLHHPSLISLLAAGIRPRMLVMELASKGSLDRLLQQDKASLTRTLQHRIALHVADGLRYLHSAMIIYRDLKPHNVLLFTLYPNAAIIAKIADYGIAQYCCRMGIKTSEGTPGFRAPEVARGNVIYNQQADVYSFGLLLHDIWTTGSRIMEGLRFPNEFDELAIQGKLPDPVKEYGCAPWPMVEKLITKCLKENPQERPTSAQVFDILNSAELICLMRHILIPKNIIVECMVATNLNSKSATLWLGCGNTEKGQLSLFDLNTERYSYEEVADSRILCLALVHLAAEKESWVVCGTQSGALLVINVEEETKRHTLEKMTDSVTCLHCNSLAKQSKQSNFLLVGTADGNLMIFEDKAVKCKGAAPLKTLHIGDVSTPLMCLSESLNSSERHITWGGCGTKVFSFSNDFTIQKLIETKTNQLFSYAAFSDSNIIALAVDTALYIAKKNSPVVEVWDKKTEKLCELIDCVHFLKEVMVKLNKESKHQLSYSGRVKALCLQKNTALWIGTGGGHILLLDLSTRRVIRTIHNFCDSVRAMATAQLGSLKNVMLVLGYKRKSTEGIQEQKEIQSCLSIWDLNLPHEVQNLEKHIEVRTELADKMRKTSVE

With `Cc1cncc2cccc(S(=O)(=O)N3CCCNC[C@@H]3C)c12` [H-1152], the entries for the “accumulation of LRRK2 within cytoplasmic pools” value in assay [1] and in assay [4] were “no cytoplasmic pool accumulation” and “marked accumulation of LRRK2 within cytoplasmic pools”, respectively. The “fold less sensitive: drug resistant LRRK2[Ala2016Thr] mutant” value on LRRK2[Ala2016Thr] was 32 fold. The “concentration inducing almost complete dephosphorylation of Ser910 and Ser935 and loss of 14-3-3 binding” value on endogenous LRRK2 [2] lay within 10 to 30 µM. Also, the “dephosphorylation of endogenous LRRK2 at Ser910 and Ser935 with concomitant reduction in 14-3-3 binding” value at endogenous LRRK2 [2] (increasing amounts of inhibitor) is “dose dependent dephosphorylation”. The “inhibition of Ser910 or Ser935 phosphorylation or 14-3-3 binding of drug resistant mutant” value on LRRK2[A2016T+G2019S] is “neither H-1152 nor sunitinib significantly inhibited”. For the same compound, on endogenous LRRK2 [3], the “endogenous LRRK2 kinase activity after treatment of cells” value was “did not affect”. The “potency in inducing dephosphorylation and impairing 14-3-3 binding: LRRK2[G2019S] compared with wild type LRRK2” value on LRRK2[G2019S] (HEK-293 cells, Flag-LRRK2 forms) is “more potent”. Besides, the “dephosphorylation of LRRK2[G2019S] at Ser910 and Ser935 and disruption of 14-3-3 binding” value on LRRK2[G2019S] (HEK-293 over-expressing LRRK2[G2019S], 90 minutes) is “dose-dependent dephosphorylation”. Moreover, the IC50 (commonly the concentration that gives 50% inhibition) at LRRK2 was 150 nM. The “potency at inducing dephosphorylation of wild type FLAG-LRRK2 compared with endogenous LRRK2 in Swiss 3T3 cells” value on wild type FLAG-LRRK2 is “similar”.

Take `N#CC(c1ccnc(NCCc2cccnc2)n1)c1nc2ccccc2s1` (stereo not drawn) [AS601245]: on GFP-LRRK2, the “dephosphorylation of Ser910/Ser935” value is reported as “did not induce dephosphorylation”.
